From US20260151375A1, “CDK2 INHIBITORS AND METHODS OF USING THE SAME” (Cedilla Therapeutics, Inc., priority 2022, published 2026) come the findings set out here.

pIC50: −log10 of the molar value. Like-named read-outs stand apart in the source and are kept apart here.

The test system of one assay is Kuramochi cells. The assay is described as follows: IncuCyte Kuramochi Assay (cell proliferation). The assay is classed as cell-based. The note with it: Kuramochi cells labeled with mApple-H2B, cell count, read-out: IncuCyte - Kuramochi RB-WT: IC50. The gist of the method: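 GI50 came from dose-response fits of cell-count fold change between 0 and 72 h, normalized to DMSO controls. Counts were fluorescent nuclei from live-cell images over a 10-point, ½ log series starting at 20 μM.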

Another assay has as its target T1, CDK2/Cyclin E1 (Homo sapiens, UniProt P24941).
T1 construct: purchased 14-475
The assay is described as follows: ADPGLO (CDK2/E1-37 C), ADP-Glo Luminescent Kinase Assay. The assay is classed as biochemical. Conditions: 0.18 nM CDK2/Cyclin E1, 100 μM ATP, Histone H1, 37° C. The method, then:
Inhibition of CDK2/Cyclin E1 activity by the presence of small molecules was evaluated using ADP-Glo Luminescent Kinase Assay (Promega). Activated CDK2/Cyclin E1 was incubated with its substrate Histone H1 (SignalChem H10-54N) in the kinase reaction buffer (100 μM ATP, 50 mM HEPES pH 7.5, 10 mM MgCl2, 1 mM EDTA, 2 mM DTT, 0.01% Brij35, 0.5 mg/mL BSA). Luminescence was recorded with an Envision plate reader (PerkinElmer).
Dose titrations of inhibitors in 100% DMSO were combined with 0.36 nM CDK2/Cyclin E1 in reaction buffer. The mixtures were incubated for 60 minutes at 37° C. before the addition of ATP and Histone H1 substrate to initiate the kinase reaction. The final conditions were 0.18 nM CDK2/Cyclin E1, 100 μM ATP, and 1.5 μM Histone H1. The reactions were incubated at 37° C. for 90 minutes before being stopped with the addition of ADP-Glo reagent. This mixture was incubated at room temperature for 60 minutes before Kinase Detection Solution is added to generate luminescence. The stopped reactions were analyzed on an Envision plate reader. The conversion ratios were normalized to yield % activity, plotted against compound concentration, and fit to a four-parameter equation to determine the IC50 for each compound.

For the molecule `CC(c1nc(C2CN(C(=O)c3cnn(Cc4ccc(OC(C)(C)C(=O)O)cc4)c3)CC23CN(C(=O)[C@H]2CC2(C)C)C3)no1)n1ccc(C2CCCC2)n1` (some centres unmarked) [I-124], the pIC50 was below 5.00 in the assay with Kuramochi cells (72 h) and 5.30 to 6.30 at CDK2/Cyclin E1.

`COC(=O)c1ccccc1Cn1cc(C(=O)N2CC(c3noc(C(C)n4ccc(C5(C(F)(F)F)CC5)n4)n3)C3(C2)CN(C(=O)C2(C(F)(F)F)CC2)C3)cn1` (centres unmarked) [I-222]: the pIC50 with Kuramochi cells (72 h) and against CDK2/Cyclin E1 was below 5.00 throughout.

On to `C=CC(=O)N(C)c1cccc(Cc2ccc(Cn3cc(C(=O)N4CC(c5nnc(C(F)(F)c6ccc(Cl)c(Cl)c6)o5)C5(C4)CN(C(=O)C4(C(F)(F)F)CC4)C5)cn3)cc2)c1` (centres unmarked) [I-208], for which the pIC50 in the assay with Kuramochi cells (72 h) and against CDK2/Cyclin E1 was below 5.00 in each case.

Take `CC(c1nc(C2CN(C(=O)c3cnn(Cc4ccc(C(F)(F)F)cc4)c3)CC23CN(C(=O)C2(C(F)(F)F)CC2)C3)no1)n1ccc(C23CCC(CC2)OC3)n1` (centres unmarked) [I-217, (8-(5-(1-(3-(2-oxabicyclo[2.2.2]octan-4-yl)-1H-pyrazol-1-yl)ethyl)-1,2,4-oxadiazol-3-yl)-2-(1-(trifluoromethyl)cyclopropane-1-carbonyl)-2,6-diazaspiro[3.4]octan-6-yl)(1-(4-(trifluoromethyl)benzyl)-1H-pyrazol-4-yl)methanone]: the pIC50 is 5.00 to 5.30 with Kuramochi cells (72 h) and 5.30 to 6.30 at CDK2/Cyclin E1.

With `CC(c1nc(C2CN(C(=O)c3cnn(Cc4ccc(C(O)C(F)(F)F)cc4)c3)CC23CN(C(=O)[C@H]2CC2(C)C)C3)no1)n1ccc(C2CCCC2)n1` (some centres unmarked) [I-113], the pIC50 in the assay on Kuramochi cells (72 h) and against CDK2/Cyclin E1 was 5.30 to 6.30 throughout.

`O=C(c1cnn(Cc2cccc3c2CCNC3)c1)N1CC(c2nnc(C(F)(F)c3ccc(Cl)c(Cl)c3)o2)C2(C1)CN(C(=O)C1(C(F)(F)F)CC1)C2` (centres unmarked) [I-106]: the figures for the negative logarithm of the IC50 (pIC50) in the assay with Kuramochi cells (72 h) and at CDK2/Cyclin E1 were 5.00 to 5.30 and below 5.00, respectively.

In the case of `CC(c1nc(C2CN(C(=O)c3cnn(Cc4ccc(C#N)cc4)c3)CC23CN(C(=O)C2(C(F)(F)F)CC2)C3)no1)n1ccc(C(F)(F)F)n1` (centres unmarked) [I-207], the pIC50 in the assay on Kuramochi cells (72 h) and against CDK2/Cyclin E1 was below 5.00 throughout.

Regarding `O=C(c1cnn(Cc2ccc(C(F)(F)F)cc2)c1)N1CC(c2nnc(C(C(=O)N3CCC(c4nccs4)CC3)c3ccc(C4CCOCC4)cc3)o2)C2(C1)CN(C(=O)C1(C(F)(F)F)CC1)C2` (centres unmarked) [I-216, 2-(4-(tetrahydro-2H-pyran-4-yl)phenyl)-1-(4-(thiazol-2-yl)piperidin-1-yl)-2-(5-(6-(1-(4-(trifluoromethyl)benzyl)-1H-pyrazole-4-carbonyl)-2-(1-(trifluoromethyl)cyclopropane-1-carbonyl)-2,6-diazaspiro[3.4]octan-8-yl)-1,3,4-oxadiazol-2-yl)ethan-1-one], the pIC50 in the assay with Kuramochi cells (72 h) was 5.30 to 6.30; against CDK2/Cyclin E1 it was at least 6.30.

In the case of `CC(c1nc(C2CN(C(=O)c3cnn(Cc4ccc(C(F)(F)F)cc4C(=O)O)c3)CC23CN(C(=O)C2(C(F)(F)F)CC2)C3)no1)n1ccc(C2(C(F)(F)F)CC2)n1` (centres unmarked) [I-218, 5-(trifluoromethyl)-2-((4-(2-(1-(trifluoromethyl)cyclopropane-1-carbonyl)-8-(5-(1-(3-(1-(trifluoromethyl)cyclopropyl)-1H-pyrazol-1-yl)ethyl)-1,2,4-oxadiazol-3-yl)-2,6-diazaspiro[3.4]octane-6-carbonyl)-1H-pyrazol-1-yl)methyl)benzoic acid], the pIC50 in the assay on Kuramochi cells (72 h) and at CDK2/Cyclin E1 was below 5.00 each time.

As for `O=C(c1cnn(Cc2ccc(C(F)(F)F)cc2)c1)N1CC(c2noc(N(Cc3ccc(Cl)c(Cl)c3)CC3CCOCC3)n2)C2(C1)CN(C(=O)C1(C(F)(F)F)CC1)C2` (centres unmarked) [I-213, (8-(5-((3,4-dichlorobenzyl)((tetrahydro-2H-pyran-4-yl)methyl)amino)-1,2,4-oxadiazol-3-yl)-2-(1-(trifluoromethyl)cyclopropane-1-carbonyl)-2,6-diazaspiro[3.4]octan-6-yl)(1-(4-(trifluoromethyl)benzyl)-1H-pyrazol-4-yl)methanone], the pIC50 was 5.00 to 5.30 in the assay on Kuramochi cells (72 h) and below 5.00 against CDK2/Cyclin E1.

For the molecule `Cc1nc(C(=O)N2C[C@H](c3noc(C(C)n4ccc(C5CCOCC5)n4)n3)C3(C2)CN(C(=O)C2(C(F)(F)F)CC2)C3)cnc1O` (stereo partly drawn) [I-224, (5-hydroxy-6-methylpyrazin-2-yl)((8R)-8-(5-(1-(3-(tetrahydro-2H-pyran-4-yl)-1H-pyrazol-1-yl)ethyl)-1,2,4-oxadiazol-3-yl)-2-(1-(trifluoromethyl)cyclopropanecarbonyl)-2,6-diazaspiro[3.4]octan-6-yl)methanone], the pIC50 with Kuramochi cells (72 h) and against CDK2/Cyclin E1 was below 5.00 in each case.

For `CC(c1nc(C2CN(C(=O)c3cnn(CC#N)c3)CC23CN(C(=O)[C@H]2CC2(C)C)C3)no1)n1ccc(C2CCCC2)n1` (stereo partly drawn) [I-119, 2-(4-(8-(5-(1-(3-cyclopentyl-1H-pyrazol-1-yl)ethyl)-1,2,4-oxadiazol-3-yl)-2-((S)-2,2-dimethylcyclopropane-1-carbonyl)-2,6-diazaspiro[3.4]octane-6-carbonyl)-1H-pyrazol-1-yl)acetonitrile], the pIC50 with Kuramochi cells (72 h) was below 5.00; against CDK2/Cyclin E1 it was 5.30 to 6.30.

Turning to `CC(c1nc(C2CN(C(=O)c3cnn(Cc4ccc(-c5nnn[nH]5)cc4)c3)CC23CN(C(=O)[C@H]2CC2(C)C)C3)no1)n1ccc(C2CCCC2)n1` (stereo partly drawn) [I-121, (1-(4-(1H-tetrazol-5-yl)benzyl)-1H-pyrazol-4-yl)(8-(5-(1-(3-cyclopentyl-1H-pyrazol-1-yl)ethyl)-1,2,4-oxadiazol-3-yl)-2-((S)-2,2-dimethylcyclopropane-1-carbonyl)-2,6-diazaspiro[3.4]octan-6-yl)methanone], the results for the pIC50 in the assay with Kuramochi cells (72 h) and at CDK2/Cyclin E1 were below 5.00 and 5.30 to 6.30, respectively.

For `CC(c1nc(C2CN(C(=O)c3cnc(O)c(C(F)(F)F)n3)CC23CN(C(=O)C2(C(F)(F)F)CC2)C3)no1)n1ccc(C2CCOCC2)n1` (centres unmarked) [I-225, (5-Hydroxy-6-(trifluoromethyl)pyrazin-2-yl)(8-(5-(1-(3-(tetrahydro-2H-pyran-4-yl)-1H-pyrazol-1-yl)ethyl)-1,2,4-oxadiazol-3-yl)-2-(1-(trifluoromethyl)cyclopropane-1-carbonyl)-2,6-diazaspiro[3.4]octan-6-yl)methanone], the values for the pIC50 in the assay with Kuramochi cells (72 h) and against CDK2/Cyclin E1 were below 5.00 and 5.00 to 5.30, respectively.

As for `CC(c1nc(C2CN(C(=O)c3cnn(Cc4ccccc4C(=O)O)c3)CC23CN(C(=O)C2(C(F)(F)F)CC2)C3)no1)n1ccc(C2(C(F)(F)F)CC2)n1` (centres unmarked) [I-220, 2-((4-(2-(1-(trifluoromethyl)cyclopropane-1-carbonyl)-8-(5-(1-(3-(1-(trifluoromethyl)cyclopropyl)-1H-pyrazol-1-yl)ethyl)-1,2,4-oxadiazol-3-yl)-2,6-diazaspiro[3.4]octane-6-carbonyl)-1H-pyrazol-1-yl)methyl)benzoic acid], the pIC50 with Kuramochi cells (72 h) was below 5.00; on CDK2/Cyclin E1 it was 5.30 to 6.30.

In the case of `O=C(c1cnc(O)cn1)N1CC(c2nnc(C(COCc3ccccc3)c3cccc(C4CCCCC4)c3)o2)C2(C1)CN(C(=O)C1(C(F)(F)F)CC1)C2` (centres unmarked) [I-107, (8-(5-(2-(benzyloxy)-1-(3-cyclohexylphenyl)ethyl)-1,3,4-oxadiazol-2-yl)-2-(1-(trifluoromethyl)cyclopropane-1-carbonyl)-2,6-diazaspiro[3.4]octan-6-yl)(5-hydroxypyrazin-2-yl)methanone], the pIC50 with Kuramochi cells (72 h) was 5.30 to 6.30; against CDK2/Cyclin E1, at least 6.30.

Turning to `CC(c1nc(C2CN(C(=O)c3cnn(Cc4ccc(C(=O)O)c(O)c4)c3)CC23CN(C(=O)[C@H]2CC2(C)C)C3)no1)n1ccc(C2CCCC2)n1` (stereo partly drawn) [I-122, 4-((4-(8-(5-(1-(3-cyclopentyl-1H-pyrazol-1-yl)ethyl)-1,2,4-oxadiazol-3-yl)-2-((S)-2,2-dimethylcyclopropane-1-carbonyl)-2,6-diazaspiro[3.4]octane-6-carbonyl)-1H-pyrazol-1-yl)methyl)-2-hydroxybenzoic acid], the pIC50 in the assay on Kuramochi cells (72 h) was below 5.00; at CDK2/Cyclin E1 it was 5.00 to 5.30.

Take `O=C(c1cc(O)n[nH]1)N1CC(c2nnc(C(F)(F)c3ccc(Cl)c(Cl)c3)o2)C2(C1)CN(C(=O)[C@H]1CC1(F)F)C2` (stereo partly drawn) [I-120, (8-(5-((3,4-dichlorophenyl)difluoromethyl)-1,3,4-oxadiazol-2-yl)-2-((R)-2,2-difluorocyclopropane-1-carbonyl)-2,6-diazaspiro[3.4]octan-6-yl)(3-hydroxy-1H-pyrazol-5-yl)methanone]: the pIC50 in the assay with Kuramochi cells (72 h) and on CDK2/Cyclin E1 was below 5.00 each time.

As for `CC(c1nc(C2CN(C(=O)c3cnn(Cc4nnn[nH]4)c3)CC23CN(C(=O)[C@H]2CC2(C)C)C3)no1)n1ccc(C2CCCC2)n1` (stereo partly drawn) [I-114, (1-((1H-tetrazol-5-yl)methyl)-1H-pyrazol-4-yl)(8-(5-(1-(3-cyclopentyl-1H-pyrazol-1-yl)ethyl)-1,2,4-oxadiazol-3-yl)-2-((S)-2,2-dimethylcyclopropane-1-carbonyl)-2,6-diazaspiro[3.4]octan-6-yl)methanone], the results for the pIC50 in the assay with Kuramochi cells (72 hours) and on CDK2/Cyclin E1 were below 5.00 and 5.30 to 6.30, respectively.

As usually defined, the pIC50 is the IC50 on a negative log10 scale, so that one unit is a factor of ten.
